Test results from ChEMBL document CHEMBL4270481, “ALK5 kinase inhibitory activity and synthesis of 2,3,4-substituted 5,5-dimethyl-5,6-dihydro-4H-pyrrolo[1,2-b]pyrazoles” (Eur J Med Chem, 2017).

Tests used:
[1] = target: Serine/threonine-protein kinase N2 (Homo sapiens) (UniProt Q16513); assay: Inhibition of PRK2 (unknown origin) assessed as residual enzyme activity at 1 uM relative to untreated control
[2] = target: MAP/microtubule affinity-regulating kinase 3 (Homo sapiens) (UniProt P27448); assay: Inhibition of MARK3 (unknown origin) assessed as residual enzyme activity at 1 uM relative to untreated control
[3] = target: T1, TGF-beta receptor type-1 (Homo sapiens) (UniProt P36897); assay: Inhibition of human ALK5 expressed in Sf9 insect cells assessed as residual enzyme activity at 1 uM using casein as substrate in presence of [gamma-33P]ATP relative to untreated control
T1 sequence (whole entry): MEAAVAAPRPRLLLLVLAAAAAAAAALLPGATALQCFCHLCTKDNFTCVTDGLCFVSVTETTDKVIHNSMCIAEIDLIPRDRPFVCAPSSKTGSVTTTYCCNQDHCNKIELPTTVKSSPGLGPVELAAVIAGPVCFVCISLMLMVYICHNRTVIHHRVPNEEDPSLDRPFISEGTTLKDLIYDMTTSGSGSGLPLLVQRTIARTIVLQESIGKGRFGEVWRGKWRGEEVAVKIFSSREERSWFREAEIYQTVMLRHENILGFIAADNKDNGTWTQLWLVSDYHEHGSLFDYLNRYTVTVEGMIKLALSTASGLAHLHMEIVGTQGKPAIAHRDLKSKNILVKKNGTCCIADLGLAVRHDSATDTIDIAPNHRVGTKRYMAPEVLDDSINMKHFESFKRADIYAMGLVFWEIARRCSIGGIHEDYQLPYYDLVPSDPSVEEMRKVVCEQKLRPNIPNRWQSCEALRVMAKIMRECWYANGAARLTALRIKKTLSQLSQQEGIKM

[4] = target: Insulin-like growth factor 1 receptor (Homo sapiens) (UniProt P08069); assay: Inhibition of IGF1R (unknown origin) assessed as residual enzyme activity at 1 uM relative to untreated control
[5] = target: Dual specificity mitogen-activated protein kinase kinase 1 (Homo sapiens) (UniProt Q02750); assay: Inhibition of MKK1 (unknown origin) assessed as residual enzyme activity at 1 uM relative to untreated control
[6] = target: AMP-activated protein kinase, AMPK (Homo sapiens) (UniProt P54646+O43741+P54619+Q9UGJ0+Q9Y478+Q13131+Q9UGI9); assay: Inhibition of AMPK (unknown origin) assessed as residual enzyme activity at 1 uM relative to untreated control; format: protein-complex assay
[7] = target: Mitogen-activated protein kinase 14 (Homo sapiens) (UniProt Q16539); assay: Inhibition of p38alpha (unknown origin) assessed as residual enzyme activity at 1 uM relative to untreated control
[8] = target: Mitogen-activated protein kinase 8 (Homo sapiens) (UniProt P45983); assay: Inhibition of JNK1 (unknown origin) assessed as residual enzyme activity at 1 uM relative to untreated control
[9] = target: Serine/threonine-protein kinase Nek6 (Homo sapiens) (UniProt Q9HC98); assay: Inhibition of NEK6 (unknown origin) assessed as residual enzyme activity at 1 uM relative to untreated control
[10] = target: Serine/threonine-protein kinase pim-1 (Homo sapiens) (UniProt P11309); assay: Inhibition of PIM1 (unknown origin) assessed as residual enzyme activity at 1 uM relative to untreated control
[11] = target: Rho-associated protein kinase 2 (Homo sapiens) (UniProt O75116); assay: Inhibition of ROCK2 (unknown origin) assessed as residual enzyme activity at 1 uM relative to untreated control
[12] = target: Myosin light chain kinase, smooth muscle (Homo sapiens) (UniProt Q15746); assay: Inhibition of SmMLCK (unknown origin) assessed as residual enzyme activity at 1 uM relative to untreated control
[13] = target: Serine/threonine-protein kinase 3 (Homo sapiens) (UniProt Q13188); assay: Inhibition of MST2 (unknown origin) assessed as residual enzyme activity at 1 uM relative to untreated control
[14] = target: Serine/threonine-protein kinase D1 (Homo sapiens) (UniProt Q15139); assay: Inhibition of PKD1 (unknown origin) assessed as residual enzyme activity at 1 uM relative to untreated control
[15] = target: Serine/threonine-protein kinase Sgk1 (Homo sapiens) (UniProt O00141); assay: Inhibition of SGK1 (unknown origin) assessed as residual enzyme activity at 1 uM relative to untreated control
[16] = target: Serine/threonine-protein kinase STK11 (Homo sapiens) (UniProt Q15831); assay: Inhibition of LKB1 (unknown origin) assessed as residual enzyme activity at 1 uM relative to untreated control
[17] = target: Interleukin-1 receptor-associated kinase 4 (Homo sapiens) (UniProt Q9NWZ3); assay: Inhibition of IRAK4 (unknown origin) assessed as residual enzyme activity at 1 uM relative to untreated control
[18] = target: Serine/threonine-protein kinase TBK1 (Homo sapiens) (UniProt Q9UHD2); assay: Inhibition of TBK1 (unknown origin) assessed as residual enzyme activity at 1 uM relative to untreated control
[19] = target: Receptor tyrosine-protein kinase erbB-4 (Homo sapiens) (UniProt Q15303); assay: Inhibition of HER4 (unknown origin) assessed as residual enzyme activity at 1 uM relative to untreated control
[20] = target: Serine/threonine-protein kinase PLK1 (Homo sapiens) (UniProt P53350); assay: Inhibition of PLK1 (unknown origin) assessed as residual enzyme activity at 1 uM relative to untreated control
[21] = target: RAC-alpha serine/threonine-protein kinase (Homo sapiens) (UniProt P31749); assay: Inhibition of PKBalpha (unknown origin) assessed as residual enzyme activity at 1 uM relative to untreated control
[22] = target: Dual specificity tyrosine-phosphorylation-regulated kinase 1A (Homo sapiens) (UniProt Q13627); assay: Inhibition of DYRK1A (unknown origin) assessed as residual enzyme activity at 1 uM relative to untreated control
[23] = target: Calcium/calmodulin-dependent protein kinase type 1 (Homo sapiens) (UniProt Q14012); assay: Inhibition of CAMK1 (unknown origin) assessed as residual enzyme activity at 1 uM relative to untreated control
[24] = target: Serine/threonine-protein kinase PAK 4 (Homo sapiens) (UniProt O96013); assay: Inhibition of PAK4 (unknown origin) assessed as residual enzyme activity at 1 uM relative to untreated control
[25] = target: Tyrosine-protein kinase ABL1 (Mus musculus, UniProt P00520); assay: biochemical; format: cell-based, Sf9
[26] = target: Tyrosine-protein kinase SYK (Homo sapiens) (UniProt P43405); assay: Inhibition of SYK (unknown origin) assessed as residual enzyme activity at 1 uM relative to untreated control
[27] = target: Aurora kinase B (Homo sapiens) (UniProt Q96GD4); assay: Inhibition of Aurora B (unknown origin) assessed as residual enzyme activity at 1 uM relative to untreated control
[28] = target: Mitogen-activated protein kinase kinase kinase 7 (Homo sapiens) (UniProt O43318); assay: Inhibition of TAK1 (unknown origin) assessed as residual enzyme activity at 1 uM relative to untreated control
[29] = target: Ribosomal protein S6 kinase beta-1 (Homo sapiens) (UniProt P23443); assay: Inhibition of S6K1 (unknown origin) assessed as residual enzyme activity at 1 uM relative to untreated control
Sequence of Ribosomal protein S6 kinase beta-1 (Homo sapiens) (P23443 whole entry, looked up): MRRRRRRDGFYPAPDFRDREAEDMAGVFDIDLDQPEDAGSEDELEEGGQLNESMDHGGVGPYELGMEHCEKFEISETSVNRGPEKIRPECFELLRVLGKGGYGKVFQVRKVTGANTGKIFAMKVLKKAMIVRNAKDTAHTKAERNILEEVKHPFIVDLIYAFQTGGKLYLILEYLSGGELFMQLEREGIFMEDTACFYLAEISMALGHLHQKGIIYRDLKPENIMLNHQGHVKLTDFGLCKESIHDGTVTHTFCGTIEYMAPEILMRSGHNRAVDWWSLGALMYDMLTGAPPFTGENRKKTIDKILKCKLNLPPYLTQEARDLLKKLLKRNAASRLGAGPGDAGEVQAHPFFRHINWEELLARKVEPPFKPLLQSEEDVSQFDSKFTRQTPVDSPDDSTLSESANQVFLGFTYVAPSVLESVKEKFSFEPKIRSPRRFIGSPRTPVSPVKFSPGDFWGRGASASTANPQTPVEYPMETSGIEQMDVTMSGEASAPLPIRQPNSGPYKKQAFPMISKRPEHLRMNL

Sequence of Mitogen-activated protein kinase 8 (Homo sapiens) (P45983 whole entry): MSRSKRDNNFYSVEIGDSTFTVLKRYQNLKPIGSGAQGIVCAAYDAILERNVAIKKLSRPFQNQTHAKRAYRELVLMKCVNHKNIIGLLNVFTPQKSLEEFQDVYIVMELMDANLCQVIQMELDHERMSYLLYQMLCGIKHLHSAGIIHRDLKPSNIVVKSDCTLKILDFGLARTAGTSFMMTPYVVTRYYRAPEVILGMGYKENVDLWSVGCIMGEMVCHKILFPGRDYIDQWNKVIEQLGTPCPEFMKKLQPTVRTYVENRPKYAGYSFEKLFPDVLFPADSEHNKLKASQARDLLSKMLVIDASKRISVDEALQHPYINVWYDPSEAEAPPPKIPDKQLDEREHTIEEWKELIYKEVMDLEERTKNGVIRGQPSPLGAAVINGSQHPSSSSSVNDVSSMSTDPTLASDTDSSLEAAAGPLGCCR
Sequence of Serine/threonine-protein kinase PLK1 (Homo sapiens) (P53350 whole entry): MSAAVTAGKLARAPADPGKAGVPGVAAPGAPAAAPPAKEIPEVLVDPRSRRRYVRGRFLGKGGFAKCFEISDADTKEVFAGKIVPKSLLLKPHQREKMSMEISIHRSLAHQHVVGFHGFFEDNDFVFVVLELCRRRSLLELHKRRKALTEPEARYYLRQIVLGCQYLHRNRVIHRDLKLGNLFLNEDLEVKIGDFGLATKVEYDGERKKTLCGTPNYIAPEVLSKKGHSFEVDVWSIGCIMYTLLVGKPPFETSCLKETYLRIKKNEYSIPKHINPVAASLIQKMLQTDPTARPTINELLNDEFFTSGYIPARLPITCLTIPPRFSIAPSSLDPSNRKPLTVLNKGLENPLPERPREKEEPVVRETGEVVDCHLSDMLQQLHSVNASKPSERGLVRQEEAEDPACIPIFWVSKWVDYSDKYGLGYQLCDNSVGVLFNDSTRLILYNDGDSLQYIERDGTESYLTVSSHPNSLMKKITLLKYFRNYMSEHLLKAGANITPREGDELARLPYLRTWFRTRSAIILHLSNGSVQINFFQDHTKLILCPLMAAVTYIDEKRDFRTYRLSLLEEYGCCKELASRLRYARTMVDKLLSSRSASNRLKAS
Sequence of Mitogen-activated protein kinase kinase kinase 7 (Homo sapiens) (O43318 whole entry): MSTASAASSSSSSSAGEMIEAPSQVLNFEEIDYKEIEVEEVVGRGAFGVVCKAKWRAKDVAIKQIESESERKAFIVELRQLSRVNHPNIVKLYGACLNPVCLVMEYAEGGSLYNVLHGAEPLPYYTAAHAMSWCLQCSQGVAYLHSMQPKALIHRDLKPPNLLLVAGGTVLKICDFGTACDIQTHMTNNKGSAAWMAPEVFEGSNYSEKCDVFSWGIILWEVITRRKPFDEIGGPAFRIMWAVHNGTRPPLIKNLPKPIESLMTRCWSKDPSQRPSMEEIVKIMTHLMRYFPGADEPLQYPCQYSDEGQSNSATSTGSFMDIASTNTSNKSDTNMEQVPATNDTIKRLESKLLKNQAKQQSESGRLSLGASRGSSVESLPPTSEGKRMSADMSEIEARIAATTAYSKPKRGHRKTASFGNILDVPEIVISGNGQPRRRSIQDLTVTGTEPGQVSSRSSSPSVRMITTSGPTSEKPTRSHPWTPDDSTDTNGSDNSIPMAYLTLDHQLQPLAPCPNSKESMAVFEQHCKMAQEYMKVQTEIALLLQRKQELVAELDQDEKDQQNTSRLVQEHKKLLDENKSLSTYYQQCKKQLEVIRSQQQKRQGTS
Sequence of Calcium/calmodulin-dependent protein kinase type 1 (Homo sapiens) (Q14012 whole entry, looked up): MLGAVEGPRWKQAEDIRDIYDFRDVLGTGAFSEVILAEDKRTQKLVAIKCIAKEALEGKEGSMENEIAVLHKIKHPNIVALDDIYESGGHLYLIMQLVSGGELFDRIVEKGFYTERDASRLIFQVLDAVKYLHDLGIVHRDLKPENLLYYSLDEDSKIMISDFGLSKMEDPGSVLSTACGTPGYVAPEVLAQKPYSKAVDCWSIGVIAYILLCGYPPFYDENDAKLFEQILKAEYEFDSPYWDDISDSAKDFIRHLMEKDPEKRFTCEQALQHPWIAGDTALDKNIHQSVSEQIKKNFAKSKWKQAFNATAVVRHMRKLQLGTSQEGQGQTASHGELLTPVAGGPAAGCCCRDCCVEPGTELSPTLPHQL
Sequence of MAP/microtubule affinity-regulating kinase 3 (Homo sapiens) (P27448 whole entry, looked up): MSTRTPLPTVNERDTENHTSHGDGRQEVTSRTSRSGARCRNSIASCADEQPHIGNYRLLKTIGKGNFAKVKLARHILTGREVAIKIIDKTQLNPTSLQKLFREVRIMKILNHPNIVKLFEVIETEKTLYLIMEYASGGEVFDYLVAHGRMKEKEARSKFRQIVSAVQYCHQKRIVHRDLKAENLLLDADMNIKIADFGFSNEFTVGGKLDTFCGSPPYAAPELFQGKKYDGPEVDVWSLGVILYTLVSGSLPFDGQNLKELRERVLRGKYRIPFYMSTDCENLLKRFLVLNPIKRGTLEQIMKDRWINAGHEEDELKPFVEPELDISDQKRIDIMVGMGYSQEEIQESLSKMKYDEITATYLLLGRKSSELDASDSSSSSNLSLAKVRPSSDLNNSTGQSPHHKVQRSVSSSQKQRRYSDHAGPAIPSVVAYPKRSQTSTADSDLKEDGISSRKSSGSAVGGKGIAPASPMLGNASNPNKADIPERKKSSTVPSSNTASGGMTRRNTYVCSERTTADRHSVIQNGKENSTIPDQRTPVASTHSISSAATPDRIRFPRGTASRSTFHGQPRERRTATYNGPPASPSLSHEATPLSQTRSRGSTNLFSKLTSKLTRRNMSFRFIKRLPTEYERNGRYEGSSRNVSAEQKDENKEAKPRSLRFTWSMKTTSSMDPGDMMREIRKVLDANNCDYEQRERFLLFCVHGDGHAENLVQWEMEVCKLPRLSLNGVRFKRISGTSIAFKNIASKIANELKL
Sequence of Serine/threonine-protein kinase N2 (Homo sapiens) (Q16513 whole entry, looked up): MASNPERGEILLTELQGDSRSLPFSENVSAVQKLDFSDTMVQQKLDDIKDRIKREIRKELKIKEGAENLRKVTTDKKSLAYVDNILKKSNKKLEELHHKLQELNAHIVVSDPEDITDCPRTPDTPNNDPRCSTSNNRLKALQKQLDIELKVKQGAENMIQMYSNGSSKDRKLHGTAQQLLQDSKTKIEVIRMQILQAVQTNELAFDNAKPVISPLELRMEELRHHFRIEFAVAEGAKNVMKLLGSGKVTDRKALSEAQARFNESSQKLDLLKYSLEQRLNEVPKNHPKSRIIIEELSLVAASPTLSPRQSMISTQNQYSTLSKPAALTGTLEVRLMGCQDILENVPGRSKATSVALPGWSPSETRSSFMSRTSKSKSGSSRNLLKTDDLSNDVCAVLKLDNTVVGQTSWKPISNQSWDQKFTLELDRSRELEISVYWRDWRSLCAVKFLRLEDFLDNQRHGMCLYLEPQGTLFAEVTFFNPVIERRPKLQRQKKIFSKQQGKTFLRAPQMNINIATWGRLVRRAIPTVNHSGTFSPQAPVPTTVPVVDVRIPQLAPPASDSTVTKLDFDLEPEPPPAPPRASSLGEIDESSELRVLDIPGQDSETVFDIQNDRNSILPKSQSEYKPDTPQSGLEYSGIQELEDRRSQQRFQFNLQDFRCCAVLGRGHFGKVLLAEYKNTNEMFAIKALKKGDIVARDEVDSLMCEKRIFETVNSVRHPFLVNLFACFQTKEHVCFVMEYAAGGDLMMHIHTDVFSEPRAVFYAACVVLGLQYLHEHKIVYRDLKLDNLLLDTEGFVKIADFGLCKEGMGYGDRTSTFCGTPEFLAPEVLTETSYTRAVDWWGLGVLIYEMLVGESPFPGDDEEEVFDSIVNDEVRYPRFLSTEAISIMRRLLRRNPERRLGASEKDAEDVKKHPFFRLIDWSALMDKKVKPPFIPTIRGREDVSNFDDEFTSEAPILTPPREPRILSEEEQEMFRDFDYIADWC
Sequence of Interleukin-1 receptor-associated kinase 4 (Homo sapiens) (Q9NWZ3 whole entry): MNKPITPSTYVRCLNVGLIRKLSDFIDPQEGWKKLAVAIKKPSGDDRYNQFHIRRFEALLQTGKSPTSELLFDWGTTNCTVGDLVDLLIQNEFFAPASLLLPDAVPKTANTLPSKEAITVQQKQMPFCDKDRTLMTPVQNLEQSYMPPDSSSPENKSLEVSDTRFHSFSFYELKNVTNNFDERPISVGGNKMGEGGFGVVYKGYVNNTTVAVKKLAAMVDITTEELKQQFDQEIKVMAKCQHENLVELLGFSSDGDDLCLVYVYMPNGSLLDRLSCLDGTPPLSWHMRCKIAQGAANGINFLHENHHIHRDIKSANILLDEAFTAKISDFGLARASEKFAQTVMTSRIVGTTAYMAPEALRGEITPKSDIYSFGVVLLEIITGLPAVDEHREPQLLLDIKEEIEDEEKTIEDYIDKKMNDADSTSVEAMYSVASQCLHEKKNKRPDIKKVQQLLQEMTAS

Q: Which Activity [1] does the source give for `Cc1cccc(-c2nn3c(c2-c2ccc(O)cc2)C(C)C(C)(C)C3)n1` (centres undefined) here?
A: > 80%

Q: And the Activity [2]?
A: > 80%

Q: And the Activity [3]?
A: 6%

Q: What about the Activity [4] of the same compound?
A: > 80%

Q: What about the Activity [5] of the same compound?
A: > 80%

Q: And the Activity [6]?
A: > 80%

Q: What about the Activity [7] of the same compound?
A: 9%

Q: And the Activity [8]?
A: > 80%

Q: And the Activity [9]?
A: > 80%

Q: What about the Activity [10] of the same compound?
A: > 80%

Q: What about the Activity [11] of the same compound?
A: > 80%

Q: What about the Activity [12] of the same compound?
A: > 80%

Q: What about the Activity [13] of the same compound?
A: > 80%

Q: What about the Activity [14] of the same compound?
A: 12%

Q: What about the Activity [15] of the same compound?
A: 60 to 80%

Q: And the Activity [16]?
A: > 80%

Q: What about the Activity [17] of the same compound?
A: > 80%

Q: What about the Activity [18] of the same compound?
A: > 80%

Q: What about the Activity [19] of the same compound?
A: > 80%

Q: What about the Activity [20] of the same compound?
A: > 80%

Q: What about the Activity [21] of the same compound?
A: > 80%

Q: What about the Activity [22] of the same compound?
A: > 80%

Q: What about the Activity [23] of the same compound?
A: > 80%

Q: What about the Activity [24] of the same compound?
A: > 80%

Q: What about the IC50 [25] of the same compound?
A: 66 µM

Q: And the Activity [26]?
A: > 80%

Q: And the Activity [27]?
A: > 80%

Q: What about the Activity [28] of the same compound?
A: > 80%

Q: And the Activity [29]?
A: > 80%
